Test results: ChEMBL document CHEMBL4312009, “Multigram scale synthesis of polycyclic lactones and evaluation of antitumor and other biological properties” (Eur J Med Chem, 2020)
pEC50, pIC50: −log10 of the molar value.

Experiments:
[1] = test system: GTPase KRas (Homo sapiens), P01116 [UNDEFINED MUTATION]; assay: Inhibition of KRas mutant in human SW480 cells assessed as cell viability by measuring ATP at 0.2 uM relative to control; assay type: cell-based
[2] = test system: GTPase KRas (Homo sapiens), P01116 [UNDEFINED MUTATION]; assay: Inhibition of KRas mutant in human SW480 cells assessed as cell viability by measuring ATP at 2 uM relative to control; assay type: cell-based
[3] = test system: GTPase KRas (Homo sapiens), P01116 [UNDEFINED MUTATION]; assay: Inhibition of KRas mutant in human SW480 cells assessed as cell viability by measuring ATP at 20 uM relative to control; assay type: cell-based
[4] = test system: GTPase KRas (Homo sapiens), P01116 [UNDEFINED MUTATION]; assay: Inhibition of KRas mutant in human DLD1 cells assessed as cell viability by measuring ATP at 0.2 uM relative to control; assay type: cell-based
[5] = test system: GTPase KRas (Homo sapiens), P01116 [UNDEFINED MUTATION]; assay: Inhibition of KRas mutant in human DLD1 cells assessed as cell viability by measuring ATP at 2 uM relative to control; assay type: cell-based
[6] = test system: GTPase KRas (Homo sapiens), P01116 [UNDEFINED MUTATION]; assay: Inhibition of KRas mutant in human DLD1 cells assessed as cell viability by measuring ATP at 20 uM relative to control; assay type: cell-based
[7] = test system: GTPase KRas (Homo sapiens), P01116 [UNDEFINED MUTATION]; assay: Inhibition of KRas mutant in human HCT116 cells assessed as cell viability by measuring ATP at 0.2 uM relative to control; assay type: cell-based
[8] = test system: GTPase KRas (Homo sapiens), P01116 [UNDEFINED MUTATION]; assay: Inhibition of KRas mutant in human HCT116 cells assessed as cell viability by measuring ATP at 2 uM relative to control; assay type: cell-based
[9] = test system: GTPase KRas (Homo sapiens), P01116 [UNDEFINED MUTATION]; assay: Inhibition of KRas mutant in human HCT116 cells assessed as cell viability by measuring ATP at 20 uM relative to control; assay type: cell-based
[10] = test system: GTPase KRas (Homo sapiens), P01116 [UNDEFINED MUTATION]; assay: Inhibition of KRas mutant in human HCT116 cells […] assessed as cell viability by measuring ATP at 0.2 uM relative to control; assay type: cell-based
[11] = test system: GTPase KRas (Homo sapiens), P01116 [UNDEFINED MUTATION]; assay: Inhibition of KRas mutant in human HCT116 cells […] assessed as cell viability by measuring ATP at 2 uM relative to control; assay type: cell-based
[12] = test system: GTPase KRas (Homo sapiens), P01116 [UNDEFINED MUTATION]; assay: Inhibition of KRas mutant in human HCT116 cells […] assessed as cell viability by measuring ATP at 20 uM relative to control; assay type: cell-based
[13] = test system: GTPase KRas (Homo sapiens), P01116 [UNDEFINED MUTATION]; assay: Inhibition of KRas mutant in human SW480 cells assessed as cell viability by measuring ATP; assay type: cell-based
[14] = test system: GTPase KRas (Homo sapiens), P01116 [UNDEFINED MUTATION]; assay: Inhibition of KRas mutant in human DLD1 cells assessed as cell viability by measuring ATP; assay type: cell-based
[15] = test system: GTPase KRas (Homo sapiens), P01116 [UNDEFINED MUTATION]; assay: Inhibition of KRas mutant in human HCT116 cells assessed as cell viability by measuring ATP; assay type: cell-based
[16] = test system: GTPase KRas (Homo sapiens), P01116 [UNDEFINED MUTATION]; assay: Inhibition of KRas mutant in human HCT116 cells […] assessed as cell viability by measuring ATP; assay type: cell-based
HeLa [17] = assay: Cell cycle arrest in human HeLa cells assessed as effect on 2N stage incubated for 21 hrs by propidium iodide based flow cytometry; assay type: functional
HeLa [18] = assay: Cell cycle arrest in human HeLa cells assessed as effect on 4N stage incubated for 21 hrs by propidium iodide based flow cytometry; assay type: functional
HeLa [19] = assay: Cell cycle arrest in human HeLa cells assessed as effect on mitotic index incubated for 21 hrs by propidium iodide based flow cytometry; assay type: functional
HeLa [20] = assay: Cell cycle arrest in human HeLa cells incubated for 21 hrs by propidium iodide based flow cytometry; assay type: functional
HeLa [21] = assay: Cell cycle arrest in human HeLa cells assessed as effect on G1 phase incubated for 21 hrs by propidium iodide based flow cytometry; assay type: functional
HeLa [22] = assay: Cell cycle arrest in human HeLa cells assessed as effect on S phase incubated for 21 hrs by propidium iodide based flow cytometry; assay type: functional
[23] = Activation of wnt pathway in mouse C2C12 cells assessed as increase in alkaline phosphatase activity; assay type: cell-based
[24] = Activation of wnt pathway in mouse C2C12 cells assessed as increase in beta-catenin activity; assay type: cell-based
[25] = biological target: Microtubule-associated protein tau (Homo sapiens) (UniProt P10636); assay: Inhibition of human Tau at 40 uM relative to control
[26] = biological target: T1, Angiopoietin-like protein 8 (Homo sapiens) (UniProt Q6UXH0); assay: Inhibition of human Angptl8 at 40 uM relative to control
T1 sequence (whole entry): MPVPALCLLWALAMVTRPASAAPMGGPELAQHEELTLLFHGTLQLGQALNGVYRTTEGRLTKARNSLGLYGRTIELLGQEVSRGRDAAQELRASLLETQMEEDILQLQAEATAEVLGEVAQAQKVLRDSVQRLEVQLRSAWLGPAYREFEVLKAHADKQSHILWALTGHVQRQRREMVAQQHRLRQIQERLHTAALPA

[27] = biological target: Apolipoprotein C-III (Homo sapiens) (UniProt P02656); assay: Inhibition of human APOC3 at 40 uM relative to control
[28] = biological target: Sodium channel protein type 9 subunit alpha (Homo sapiens) (UniProt Q15858); assay: Inhibition of human Nav1.7 at 40 uM relative to control
[29] = biological target: Proprotein convertase subtilisin/kexin type 9 (Homo sapiens) (UniProt Q8NBP7); assay: Inhibition of human PCSK9 at 40 uM relative to control
HT-29 [30] = assay: Antiproliferative activity against human HT-29 cells assessed as reduction in cell viability incubated for 24 hrs by MTT assay; assay type: functional, cell-based; details: HT-29, 24 h
HT-29 [31] = assay: Antiproliferative activity against human HT-29 cells assessed as reduction in cell viability incubated for 24 hrs in hypoxia condition by MTT assay; assay type: functional, cell-based; details: HT-29, 24 h
HT-29 [32] = assay: Selectivity index, ratio of IC50 of antiproliferative activity against human HT-29 cells in normoxia to IC50 of antiproliferative activity against human HT-29 cells in hypoxia condition; assay type: functional
CHO = assay: Cytotoxicity against CHO cells assessed as reduction in cell viability; assay type: cell-based; details: Cricetulus griseus
CYP1A1 = assay: Selectivity index, ratio of IC50 of cytotoxicity against CHO cells to IC50 for bioactivation in CYP1A1 (unknown origin) transfected CHO cells assessed as CYP1A1-mediated drug activation by measuring reduction in cell viability; assay type: cell-based; details: hamster, CHO cells and CYP1A1-transfected CHO cells; read-out: Ratio IC50

Apolipoprotein C-III (Homo sapiens), sequence (P02656 whole entry): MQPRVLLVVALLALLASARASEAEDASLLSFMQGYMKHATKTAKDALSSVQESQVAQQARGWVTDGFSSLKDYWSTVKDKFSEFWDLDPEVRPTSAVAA
Microtubule-associated protein tau (Homo sapiens), sequence (P10636 whole entry): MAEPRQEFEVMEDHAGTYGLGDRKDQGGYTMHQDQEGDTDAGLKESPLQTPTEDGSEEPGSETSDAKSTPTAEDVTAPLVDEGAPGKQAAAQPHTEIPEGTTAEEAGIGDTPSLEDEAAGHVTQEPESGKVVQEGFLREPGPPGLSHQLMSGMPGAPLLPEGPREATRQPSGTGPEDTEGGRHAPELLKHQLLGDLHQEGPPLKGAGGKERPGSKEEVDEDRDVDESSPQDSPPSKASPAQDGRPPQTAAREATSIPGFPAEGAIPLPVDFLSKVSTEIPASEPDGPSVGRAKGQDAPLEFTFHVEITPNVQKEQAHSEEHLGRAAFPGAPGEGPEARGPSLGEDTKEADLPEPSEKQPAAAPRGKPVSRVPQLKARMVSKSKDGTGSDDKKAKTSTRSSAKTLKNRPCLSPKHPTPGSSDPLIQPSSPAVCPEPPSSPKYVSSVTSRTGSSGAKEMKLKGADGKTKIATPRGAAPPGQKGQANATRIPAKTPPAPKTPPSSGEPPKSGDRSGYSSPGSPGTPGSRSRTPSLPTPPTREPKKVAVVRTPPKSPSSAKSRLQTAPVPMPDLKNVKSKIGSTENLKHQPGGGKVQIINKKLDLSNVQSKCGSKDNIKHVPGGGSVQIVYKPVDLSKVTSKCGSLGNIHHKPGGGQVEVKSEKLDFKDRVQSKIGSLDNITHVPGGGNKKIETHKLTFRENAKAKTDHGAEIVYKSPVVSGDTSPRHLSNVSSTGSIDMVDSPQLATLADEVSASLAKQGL
Proprotein convertase subtilisin/kexin type 9 (Homo sapiens), sequence (Q8NBP7 31-152 limits assumed): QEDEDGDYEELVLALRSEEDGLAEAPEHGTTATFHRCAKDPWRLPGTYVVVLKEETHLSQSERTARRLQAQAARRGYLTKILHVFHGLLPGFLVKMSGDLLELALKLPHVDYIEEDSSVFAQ
Proprotein convertase subtilisin/kexin type 9 (Homo sapiens), sequence (Q8NBP7 153-692 limits assumed): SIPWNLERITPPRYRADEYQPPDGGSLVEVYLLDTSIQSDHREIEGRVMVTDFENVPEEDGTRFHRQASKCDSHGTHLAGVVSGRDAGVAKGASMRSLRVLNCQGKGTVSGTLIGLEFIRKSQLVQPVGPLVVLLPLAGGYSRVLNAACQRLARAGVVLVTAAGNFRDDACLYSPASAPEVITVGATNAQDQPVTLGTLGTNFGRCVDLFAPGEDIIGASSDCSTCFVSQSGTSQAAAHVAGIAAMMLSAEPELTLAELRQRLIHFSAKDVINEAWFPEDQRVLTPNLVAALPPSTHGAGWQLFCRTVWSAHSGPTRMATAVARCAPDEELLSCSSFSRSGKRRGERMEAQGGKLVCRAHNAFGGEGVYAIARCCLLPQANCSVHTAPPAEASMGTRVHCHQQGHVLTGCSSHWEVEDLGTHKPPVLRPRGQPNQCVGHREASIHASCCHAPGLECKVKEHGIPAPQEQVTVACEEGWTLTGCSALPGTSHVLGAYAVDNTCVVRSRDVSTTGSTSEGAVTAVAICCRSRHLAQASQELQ
GTPase KRas (Homo sapiens), P01116 [UNDEFINED MUTATION], sequence (P01116 whole entry, looked up, change not shown): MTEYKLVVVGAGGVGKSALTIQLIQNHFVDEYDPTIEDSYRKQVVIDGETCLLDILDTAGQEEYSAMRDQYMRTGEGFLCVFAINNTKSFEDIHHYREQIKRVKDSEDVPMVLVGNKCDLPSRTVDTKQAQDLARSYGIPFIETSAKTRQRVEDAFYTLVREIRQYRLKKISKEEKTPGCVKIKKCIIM
Sodium channel protein type 9 subunit alpha (Homo sapiens), sequence (Q15858 whole entry, looked up): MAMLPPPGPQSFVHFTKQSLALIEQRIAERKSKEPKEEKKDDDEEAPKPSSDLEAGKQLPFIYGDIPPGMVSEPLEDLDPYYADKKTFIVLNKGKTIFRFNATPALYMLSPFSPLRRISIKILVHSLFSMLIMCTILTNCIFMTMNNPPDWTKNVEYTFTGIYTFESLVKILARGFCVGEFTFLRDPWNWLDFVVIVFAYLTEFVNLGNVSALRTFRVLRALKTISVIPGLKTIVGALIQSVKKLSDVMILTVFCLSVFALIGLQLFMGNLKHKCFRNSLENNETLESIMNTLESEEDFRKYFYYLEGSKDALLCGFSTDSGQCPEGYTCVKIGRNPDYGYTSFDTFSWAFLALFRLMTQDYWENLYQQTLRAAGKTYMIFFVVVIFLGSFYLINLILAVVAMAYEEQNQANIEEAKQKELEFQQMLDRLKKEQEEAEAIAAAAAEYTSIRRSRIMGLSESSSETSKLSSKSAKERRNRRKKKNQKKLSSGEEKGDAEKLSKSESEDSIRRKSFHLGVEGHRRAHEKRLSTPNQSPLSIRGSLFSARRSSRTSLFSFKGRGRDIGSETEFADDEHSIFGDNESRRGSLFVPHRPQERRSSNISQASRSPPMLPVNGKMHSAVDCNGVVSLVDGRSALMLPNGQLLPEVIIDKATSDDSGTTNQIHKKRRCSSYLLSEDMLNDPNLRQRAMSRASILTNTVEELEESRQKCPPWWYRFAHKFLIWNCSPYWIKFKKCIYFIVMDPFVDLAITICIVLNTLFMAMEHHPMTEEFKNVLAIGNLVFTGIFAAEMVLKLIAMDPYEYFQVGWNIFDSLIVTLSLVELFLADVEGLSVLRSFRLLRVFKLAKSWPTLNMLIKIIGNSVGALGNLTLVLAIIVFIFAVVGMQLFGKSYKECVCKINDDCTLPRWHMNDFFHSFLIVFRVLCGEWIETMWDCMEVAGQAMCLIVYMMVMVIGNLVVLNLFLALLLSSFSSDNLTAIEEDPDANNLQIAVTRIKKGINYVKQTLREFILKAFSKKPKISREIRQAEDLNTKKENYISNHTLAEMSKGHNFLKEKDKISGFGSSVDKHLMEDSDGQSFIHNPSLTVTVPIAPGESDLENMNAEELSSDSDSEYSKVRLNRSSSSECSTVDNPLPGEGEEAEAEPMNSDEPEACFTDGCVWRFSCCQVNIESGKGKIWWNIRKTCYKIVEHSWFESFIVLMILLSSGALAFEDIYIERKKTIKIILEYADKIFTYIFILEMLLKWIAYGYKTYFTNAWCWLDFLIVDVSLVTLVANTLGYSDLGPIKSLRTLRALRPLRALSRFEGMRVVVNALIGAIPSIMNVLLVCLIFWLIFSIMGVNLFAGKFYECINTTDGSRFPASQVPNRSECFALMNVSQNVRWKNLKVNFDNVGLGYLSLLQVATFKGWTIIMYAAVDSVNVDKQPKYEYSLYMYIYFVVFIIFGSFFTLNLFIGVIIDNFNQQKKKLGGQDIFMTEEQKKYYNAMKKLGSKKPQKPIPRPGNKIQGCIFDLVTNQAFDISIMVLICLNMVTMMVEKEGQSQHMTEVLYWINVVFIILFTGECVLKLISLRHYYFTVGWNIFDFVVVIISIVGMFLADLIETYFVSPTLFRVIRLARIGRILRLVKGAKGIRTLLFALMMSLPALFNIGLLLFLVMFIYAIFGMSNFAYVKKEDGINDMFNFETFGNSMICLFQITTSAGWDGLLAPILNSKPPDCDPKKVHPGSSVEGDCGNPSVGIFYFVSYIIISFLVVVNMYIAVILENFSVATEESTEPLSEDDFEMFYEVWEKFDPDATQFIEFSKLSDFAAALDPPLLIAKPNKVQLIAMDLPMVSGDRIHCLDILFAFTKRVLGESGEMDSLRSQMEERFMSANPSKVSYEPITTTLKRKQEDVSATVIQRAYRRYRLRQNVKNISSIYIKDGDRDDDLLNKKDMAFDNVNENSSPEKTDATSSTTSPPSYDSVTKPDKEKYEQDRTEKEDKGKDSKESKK

| pIC50 (HeLa [17]) | pEC50 (HeLa [18]) | pEC50 (HeLa [19]) | pEC50 (HeLa [21]) | pIC50 (HeLa [22]) | inhibition [25] | inhibition [26] | inhibition [27] | inhibition [29] | SMILES | inhibition [1] | inhibition [2] | inhibition [3] | inhibition [4] | inhibition [5] | inhibition [6] | inhibition [7] | inhibition [8] | inhibition [9] | inhibition [11] | inhibition [12] | also measured |
| --- | --- | --- | --- | --- | --- | --- | --- | --- | --- | --- | --- | --- | --- | --- | --- | --- | --- | --- | --- | --- | --- |
| 5.82 | 5.85 | 5.89 | < 5.00 | < 5.00 | 56% | 67% | 67% | 35% | Cc1c2c(c(CCCCBr)c3c1Oc1ccccc1O3)C(=O)OC2 | 7% | 62% | 63% | 30% | 45% | 76% | 33% | 56% | 76% | 58% | 53% | inhibition [10]: 15%; inhibition [13]: Dose-dependent effect; inhibition [14]: Dose-dependent effect; inhibition [15]: Dose-dependent effect; inhibition [16]: Dose-dependent effect; pIC50 (HeLa [20]): 6.22; pEC50 [23]: 5.09; pEC50 [24]: < 4.70; inhibition [28]: 0% |
| – | – | – | – | – | – | – | – | – | CCc1c2c(nc3ccc(OC(=O)N4CCC(N5CCCCC5)CC4)cc13)-c1cc3c(c(=O)n1C2)COC(=O)[C@]3(O)CC [IRINOTECAN] | – | – | – | – | – | – | – | – | – | – | – | pIC50 (HT-29 [30]): 5.40; pIC50 (HT-29 [31]): 5.45; Ratio IC50 (HT-29 [32]): 1.12 |
| < 5.00 | < 5.00 | < 5.00 | < 5.00 | < 5.00 | 23% | 34% | 12% | -7% | CCCCCc1c2c(c(C)c3c1Oc1cc(OC)ccc1O3)C(=O)OC2 | – | – | – | – | – | -3.9% | – | – | 26% | – | – | pEC50 [23]: < 5.00; pEC50 [24]: < 5.00 |
| – | – | – | – | – | 30% | 27% | 7% | -4% | CCCCCCc1c2c(c(C)c3c1Oc1ccccc1O3)C(=O)SC2 | 10% | 10% | 21% | -10% | 6% | 14% | -10% | 2.9% | 13% | -5.6% | 3.4% | inhibition [28]: -2% |
| 5.74 | 5.80 | 5.85 | < 5.00 | < 5.00 | 88% | 89% | 78% | 69% | CCCCCc1c2c(c(C)c3c1C(=O)OC3)Oc1ccccc1O2 | 20% | 64% | 86% | 60% | 63% | 120% | 20% | 62% | 89% | 59% | 66% | inhibition [10]: 5%; inhibition [13]: Dose-dependent effect; inhibition [14]: Dose-dependent effect; inhibition [15]: Dose-dependent effect; inhibition [16]: Dose-dependent effect; pIC50 (HeLa [20]): 6.00; pEC50 [23]: 5.20; inhibition [28]: 74% |
| – | – | – | – | – | – | – | – | – | Cc1c2ccncc2c(C)c2c1[nH]c1ccccc12 [ELLIPTECINE] | – | – | – | – | – | – | – | – | – | – | – | pIC50 (CHO): 7.70; selectivity ratio (CYP1A1): 15.6 |
